Test system: DIO mice
Assay: Weight loss recovery of mPD5 relative to liraglutide
Assay type: in vivo
Details: 0.09 mg kg−1 s.c. once daily for 9 days

For liraglutide, the “Weight regain upon treatment cessation” value was “promptly initiated weight regain upon treatment cessation”.

Reference: publication PMC10906926 (Science Advances, 2024)
